The text below walks through data of patent publication US20120164154A1, “METHOD FOR INCREASING INSULIN SENSITIVITY AND FOR TREATING AND PREVENTING TYPE 2 DIABETES” (priority 2002, published 2012).

The test system of one assay is isolated soleus muscle. Briefly: Basal and insulin-stimulated 2-deoxyglucose uptake in isolated soleus muscle. Also on record: species or system mice. The following applies: 0.1 m-unit of insulin/ml, 2 h preincubation, 2-deoxyglucose uptake 15 min. The protocol: (A) Representative immunoblot of GLUT4 protein expression along with combined densitometric analysis. Muscle from 3 SCD1+/+ and 3 SCD1−/− mice were pooled. Plasma membranes were prepared as described in Example 1. Equal amount of protein was separated by SDS-PAGE and immunoblotted with GLUT4 antibody. Experiment was repeated three times. Data are shown as means±SD. *P<0.05 vs controls. Nitrocellulose membrane was stripped and reprobed with GAPDH antibody to ensure equal loading of the protein. (B) Glucose uptake measured in vivo in soleus and gastrocnemius muscles. […] The 2-deoxyglucose uptake was calculated as the difference between the total muscle radioactivity and the radioactivity of the muscle extracellular space measured using [1-^3H] mannitol. […]
Determination of plasma membrane GLUT4 levels, glucose uptake and glucose oxidation. Muscle plasma membranes were prepared from muscle of SCD1−/− and SCD1+/+ mice and GLUT4 levels were determined as described in Agote, M. et al. (2001) Am. […] The scintillation cocktail was added and radioactivity was counted in a liquid scintillation counter. The 2-deoxyglucose (2-DG) uptake was calculated as the difference between the total muscle radioactivity and the radioactivity of the muscle extracellular space. […] Glucose oxidation was determined in thin slices (20-30 mg) of gastrocnemius muscle as described in Baque, S. et al. (2001) Am. […]

The nature of another assay: Insulin tolerance test. The format is in vivo. The settings on record: SCD1-/- mice compared with wild-type mice. The text has this:
Animals and Diets. SCD1−/− mice in SV129 background were generated and genotyped as described in Miyazaki, M. et al. (2001) J. Nutr. 131, 2260-2268. The wild-type (SCD1+/+), heterozygous (SCD1+/−) and homozygous (SCD1−/−) mice are housed and bred in a pathogen-free barrier facility of the Department of Biochemistry (University of Wisconsin, Madison) operating at room temperature in a 12-h light/12-h dark cycle. The breeding of these animals was in accordance with the protocols approved by the animal care research committee of the University of Wisconsin. At 3 weeks of age, the mice were fed ad libitum a standard laboratory chow diet or a high-fat diet for 23 weeks. The high-fat diet contains 195 g/kg casein, 3 g/kg DL-methionine, 377 g/kg sucrose, 150 g/kg corn starch, 153 g/kg anhydrous milkfat, 10 g/kg corn oil, 1.5 g/kg cholesterol, 60.067 g/kg cellulose, 35 g/kg mineral mix AIN-76 (170915), 4 g/kg calcium carbonate, 10 g/kg vitamin mix Teklad (40060), 1.2 g/kg choline bitartrate, and 0.033 g/kg ethoxyquin (antioxidant). The weight of each mouse within each group was measured weekly; the data are presented as means±SD (n=8, P<0.001). The glucose tolerance and insulin tolerance were determined as described in Stoehr, J. P. et al. (2000) Diabetes 49, 1946-1954.

With insulin, the entries for the “insulin-mediated glucose uptake (fold)” value in the assay on isolated soleus muscle (isolated soleus muscle from SCD1+/+ mice) and with isolated soleus muscle (isolated soleus muscle from SCD1-/- mice) were 1.6 fold and 2.1 fold, respectively. Besides, the “glucose lowering effect of insulin” value in “Insulin tolerance test” is “greater in the SCD1−/− mice than wild-type mice”.
